# Measurements from patent US10517889B2, “Modulators of SMAD7 expression” (Ionis Pharmaceuticals, Inc., priority 2017, dated 2019).
# Strand notation (5' to 3'): a small letter for the sugar, then the base; units joined by * are phosphorothioate-linked, units joined directly phosphodiester-linked; [ ] holds rarer units or linkages, { } end groups; capitals alone tell only the bases. k = constrained ethyl (cEt); [5mC] = 5-methylcytosine; d = 2'-deoxy (DNA)
# Test system: human SMAD7 mRNA
# Experiment: Antisense inhibition of human SMAD7 mRNA expression in Hep3B cells by 3-10-3 cEt gapmers, 10,000 nM, electroporation (Example 2)
# Type: cell-based
# Conditions: SMAD7 mRNA, Hep3B cells, electroporation with 10,000 nM antisense oligonucleotide, approximately 24 hours, primer probe set RTS5062, relative to untreated control cells
# Summary of the method: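 Hep3B cells (20,000 per well) were electroporated with 10,000 nM 16-mer 3-10-3 cEt gapmer (phosphorothioate, 5-methylcytosine). After about 24 h, SMAD7 mRNA was quantified by qRT-PCR with primer probe set RTS5062, normalised to RIBOGREEN total RNA, and expressed as percent inhibition versus untreated cells.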
row,Substance,% Inhibition
1,829951 (kG*k[5mC]*kT*d[5mC]*d[5mC]*dG*dG*dG*d[5mC]*dA*dG*d[5mC]*d[5mC]*kA*kG*kT; antisense) [compound 829951],10%
2,829952 (kA*k[5mC]*k[5mC]*d[5mC]*dG*dT*d[5mC]*dT*dG*dG*dG*d[5mC]*dT*k[5mC]*k[5mC]*kG; antisense) [compound 829952],2%
3,829953 (kG*kT*k[5mC]*dA*d[5mC]*d[5mC]*d[5mC]*dG*dT*d[5mC]*dT*dG*dG*kG*k[5mC]*kT; antisense) [compound 829953],34%
4,829954 (kT*kT*kG*dT*d[5mC]*dA*d[5mC]*d[5mC]*d[5mC]*dG*dT*d[5mC]*dT*kG*kG*kG; antisense) [compound 829954],53%
5,829955 (k[5mC]*kT*kT*dG*dT*d[5mC]*dA*d[5mC]*d[5mC]*d[5mC]*dG*dT*d[5mC]*kT*kG*kG; antisense) [compound 829955],52%
6,829957 (k[5mC]*kA*k[5mC]*d[5mC]*dT*dT*dG*dT*d[5mC]*dA*d[5mC]*d[5mC]*d[5mC]*kG*kT*k[5mC]; antisense) [compound 829957],41%
7,829958 (kG*k[5mC]*kA*d[5mC]*d[5mC]*dT*dT*dG*dT*d[5mC]*dA*d[5mC]*d[5mC]*k[5mC]*kG*kT; antisense) [compound 829958],51%
8,829959 (kT*kT*kA*dT*dT*dA*dA*dT*dG*dG*dT*d[5mC]*dT*kG*k[5mC]*kT; antisense) [compound 829959],12%
9,829960 (kA*kT*kT*dA*dT*dT*dA*dA*dT*dG*dG*dT*d[5mC]*kT*kG*k[5mC]; antisense) [compound 829960],17%
10,829961 (kT*kG*kA*dT*dT*dA*dT*dT*dA*dA*dT*dG*dG*kT*k[5mC]*kT; antisense) [compound 829961],14%
11,829962 (k[5mC]*kT*kG*dA*dT*dT*dA*dT*dT*dA*dA*dT*dG*kG*kT*k[5mC]; antisense) [compound 829962],19%
12,829963 (k[5mC]*k[5mC]*kT*dA*dG*dT*dT*d[5mC]*dG*d[5mC]*dA*dG*dA*kG*kT*k[5mC]; antisense) [compound 829963],46%
13,829964 (k[5mC]*kA*k[5mC]*d[5mC]*dT*dA*dG*dT*dT*d[5mC]*dG*d[5mC]*dA*kG*kA*kG; antisense) [compound 829964],3%
14,829965 (k[5mC]*kT*k[5mC]*dA*d[5mC]*d[5mC]*dT*dA*dG*dT*dT*d[5mC]*dG*k[5mC]*kA*kG; antisense) [compound 829965],0%
15,829966 (kT*kT*k[5mC]*d[5mC]*d[5mC]*dA*dG*dG*dA*dG*dG*dG*dT*kA*kT*kG; antisense) [compound 829966],0%
16,829967 (k[5mC]*k[5mC]*k[5mC]*d[5mC]*d[5mC]*dA*dG*dG*dG*dA*dA*dT*dG*k[5mC]*k[5mC]*k[5mC]; antisense) [compound 829967],0%
17,829968 (kA*kA*k[5mC]*d[5mC]*d[5mC]*d[5mC]*d[5mC]*dA*dG*dG*dG*dA*dA*kT*kG*k[5mC]; antisense) [compound 829968],30%
18,829969 (kG*kA*kA*d[5mC]*d[5mC]*d[5mC]*d[5mC]*d[5mC]*dA*dG*dG*dG*dA*kA*kT*kG; antisense) [compound 829969],17%
19,829970 (kT*kG*kG*dA*dA*dG*dG*dG*dA*dA*d[5mC]*d[5mC]*d[5mC]*k[5mC]*k[5mC]*kA; antisense) [compound 829970],0%
20,829971 (kG*k[5mC]*k[5mC]*dA*d[5mC]*dA*d[5mC]*dA*d[5mC]*d[5mC]*dT*d[5mC]*dA*kA*k[5mC]*kG; antisense) [compound 829971],20%
21,829972 (k[5mC]*kT*k[5mC]*dG*dG*d[5mC]*d[5mC]*dA*d[5mC]*dA*d[5mC]*dA*d[5mC]*k[5mC]*kT*k[5mC]; antisense) [compound 829972],22%
22,829973 (kA*kA*kG*dA*dG*dG*d[5mC]*d[5mC]*dG*d[5mC]*d[5mC]*dT*dG*kG*k[5mC]*kG; antisense) [compound 829973],17%
23,829974 (kA*kA*kA*dA*dG*dA*dG*dG*d[5mC]*d[5mC]*dG*d[5mC]*d[5mC]*kT*kG*kG; antisense) [compound 829974],27%
24,829975 (k[5mC]*kA*kA*dA*dA*dG*dA*dG*dG*d[5mC]*d[5mC]*dG*d[5mC]*k[5mC]*kT*kG; antisense) [compound 829975],32%
25,829976 (kA*k[5mC]*kA*dA*dA*dA*dG*dA*dG*dG*d[5mC]*d[5mC]*dG*k[5mC]*k[5mC]*kT; antisense) [compound 829976],10%

row,Substance,% Inhibition
1,829977 (kT*kA*kG*d[5mC]*dT*dG*dT*d[5mC]*dA*dG*dA*dT*dA*kA*kA*k[5mC]; antisense) [compound 829977],35%
2,829978 (kA*kT*kA*dT*dT*dT*dA*dG*d[5mC]*dT*dG*dT*d[5mC]*kA*kG*kA; antisense) [compound 829978],50%
3,829979 (kT*kG*kA*dT*dA*dT*dT*dT*dA*dG*d[5mC]*dT*dG*kT*k[5mC]*kA; antisense) [compound 829979],49%
4,829981 (kG*kT*kG*dA*dT*dT*dG*d[5mC]*d[5mC]*dT*dT*dG*dA*kT*kA*kT; antisense) [compound 829981],14%
5,829982 (k[5mC]*kG*kG*dT*dG*dA*dT*dT*dG*d[5mC]*d[5mC]*dT*dT*kG*kA*kT; antisense) [compound 829982],44%
6,829983 (kG*kG*k[5mC]*dG*dG*dT*dG*dA*dT*dT*dG*d[5mC]*d[5mC]*kT*kT*kG; antisense) [compound 829983],43%
7,829984 (kA*kG*kG*d[5mC]*dG*dG*dT*dG*dA*dT*dT*dG*d[5mC]*k[5mC]*kT*kT; antisense) [compound 829984],0%
8,829985 (kG*kA*kG*dG*d[5mC]*dG*dG*dT*dG*dA*dT*dT*dG*k[5mC]*k[5mC]*kT; antisense) [compound 829985],16%
9,829986 (k[5mC]*kG*kA*dG*dG*d[5mC]*dG*dG*dT*dG*dA*dT*dT*kG*k[5mC]*k[5mC]; antisense) [compound 829986],28%
10,829987 (k[5mC]*k[5mC]*kG*d[5mC]*dG*dA*dG*dG*d[5mC]*dG*dG*dT*dG*kA*kT*kT; antisense) [compound 829987],6%
11,829988 (kG*k[5mC]*k[5mC]*dG*d[5mC]*dG*dA*dG*dG*d[5mC]*dG*dG*dT*kG*kA*kT; antisense) [compound 829988],27%
12,829989 (kG*kG*k[5mC]*d[5mC]*dG*d[5mC]*dG*dA*dG*dG*d[5mC]*dG*dG*kT*kG*kA; antisense) [compound 829989],2%
13,829990 (kG*kG*kG*d[5mC]*d[5mC]*dG*d[5mC]*dG*dA*dG*dG*d[5mC]*dG*kG*kT*kG; antisense) [compound 829990],35%
14,829991 (kA*kG*kG*dG*d[5mC]*d[5mC]*dG*d[5mC]*dG*dA*dG*dG*d[5mC]*kG*kG*kT; antisense) [compound 829991],26%
15,829992 (kG*k[5mC]*kA*dG*dG*dG*d[5mC]*d[5mC]*dG*d[5mC]*dG*dA*dG*kG*k[5mC]*kG; antisense) [compound 829992],10%
16,829993 (kG*kG*k[5mC]*dA*dG*dG*dG*d[5mC]*d[5mC]*dG*d[5mC]*dG*dA*kG*kG*k[5mC]; antisense) [compound 829993],26%
17,829996 (kT*kT*kT*dG*dT*d[5mC]*dT*dT*dA*dG*d[5mC]*dT*dG*kT*kG*kG; antisense) [compound 829996],54%
18,829997 (kG*kT*kT*dT*dG*dT*d[5mC]*dT*dT*dA*dG*d[5mC]*dT*kG*kT*kG; antisense) [compound 829997],21%
19,829998 (kT*kG*kT*dT*dT*dG*dT*d[5mC]*dT*dT*dA*dG*d[5mC]*kT*kG*kT; antisense) [compound 829998],34%
20,829999 (k[5mC]*kT*kG*dT*dT*dT*dG*dT*d[5mC]*dT*dT*dA*dG*k[5mC]*kT*kG; antisense) [compound 829999],46%
21,830000 (kA*k[5mC]*kT*dG*dT*dT*dT*dG*dT*d[5mC]*dT*dT*dA*kG*k[5mC]*kT; antisense) [compound 830000],51%
22,830001 (kG*k[5mC]*k[5mC]*d[5mC]*dA*dA*d[5mC]*dT*dG*dT*dT*dT*dG*kT*k[5mC]*kT; antisense) [compound 830001],24%
23,830002 (kT*kA*kG*d[5mC]*d[5mC]*d[5mC]*dA*dA*d[5mC]*dT*dG*dT*dT*kT*kG*kT; antisense) [compound 830002],43%
24,830003 (antisense kG*kG*k[5mC]*dA*dT*dT*d[5mC]*dT*dT*dT*dT*dA*dG*k[5mC]*k[5mC]*k[5mC]) [compound 830003],0%
25,830004 (antisense kT*kA*kA*dA*dG*dG*d[5mC]*d[5mC]*d[5mC]*dA*dG*d[5mC]*d[5mC]*kA*kT*kG) [compound 830004],24%
